Earlier results, collected in publication PMC5641551, “Chemical Proteomics for Target Discovery of Head-to-Tail Cyclized Mini-Proteins” (Frontiers in Chemistry, 2017).

Test system: FK-binding protein 12
Settings: no reference given; cited from earlier work

## CO[C@H]1C[C@@H]2CC[C@@H](C)[C@@](O)(O2)C(=O)C(=O)N2CCCC[C@H]2C(=O)O[C@H]([C@H](C)C[C@@H]2CC[C@@H](O)[C@H](OC)C2)CC(=O)[C@H](C)/C=C(\C)[C@@H](O)[C@@H](OC)C(=O)[C@H](C)C[C@H](C)/C=C/C=C/C=C/1C [rapamycin]
  binding to FK-binding protein 12: binds to the protein FK-binding protein 12
